Drawing on patent publication US20240409585A1, “MACROCYCLIC IMMUNOMODULATORS” (priority 2021, published 2024), this text covers IC50 for nine compounds.

Bridge positions count the residues as written; N and C are the ends. Square brackets hold non-standard residues; d marks the D form. Peptide text beside a SMILES is read from it. * marks the point of attachment. Bip(4'-NHAc) = CC(=O)Nc1ccc(-c2ccc(C[C@H](N)C(=O)O)cc2)cc1; Phe(3-CF3) = N[C@@H](Cc1cccc(C(F)(F)F)c1)C(=O)O; Phe(4-CONH2) = NC(=O)c1ccc(C[C@H](N)C(=O)O)cc1; Phe(4-COOH) = N[C@@H](Cc1ccc(C(=O)O)cc1)C(=O)O; Bip = N[C@@H](Cc1ccc(-c2ccccc2)cc1)C(=O)O; Phe(3-Cl) = N[C@@H](Cc1cccc(Cl)c1)C(=O)O; Abu(3R-NH2) = C[C@@H](N)[C@H](N)C(=O)O; Phe(3-Me) = Cc1cccc(C[C@H](N)C(=O)O)c1; Gla = N[C@@H](CC(C(=O)O)C(=O)O)C(=O)O; Val(3-OH) = CC(C)(O)[C@H](N)C(=O)O; hArg = N=C(N)NCCCC[C@H](N)C(=O)O; hPhe = N[C@@H](CCc1ccccc1)C(=O)O; Cha = N[C@@H](CC1CCCCC1)C(=O)O; Carboxymethyl = O=C(O)C*; NMeA = CN[C@@H](C)C(=O)O; Orn = NCCC[C@H](N)C(=O)O; Dab = NCC[C@H](N)C(=O)O

The target in one assay is T1, Alexa fluor-647 labeled human PD-L1-Ig binding to Jurkat cell line over-expressing human PD-1 (Homo sapiens, UniProt Q15116).
T1 construct: expressed in transfected cells; host or cells: Jurkat
T1 sequence (Q15116 25-288): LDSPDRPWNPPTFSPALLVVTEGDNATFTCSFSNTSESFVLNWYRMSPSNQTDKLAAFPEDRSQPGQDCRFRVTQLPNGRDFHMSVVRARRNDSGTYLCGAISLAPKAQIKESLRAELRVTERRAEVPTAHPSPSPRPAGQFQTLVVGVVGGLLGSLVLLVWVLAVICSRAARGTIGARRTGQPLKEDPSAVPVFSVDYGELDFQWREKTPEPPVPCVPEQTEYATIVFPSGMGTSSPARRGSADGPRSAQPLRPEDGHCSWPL
As to the kind of experiment: Jurkat-PD-1 Cell Binding High-Content Screening Assay (CBA): Method 3 (Alexa fluor-647 labeled PD-L1-Ig). The note with it: Jurkat-PD-1 cells, Alexa fluor-647 labeled PD-L1-Ig 177 nM; head μM; read-out: CBA Method 3 μM. Here is the method:
Jurkat-PD-1 Cell Binding High-Content Screening Assay (CBA): Method 3
Alexa fluor-647 was covalently linked to the Ig epitope tag of human PD-L1-Ig and fluorescently labeled PD-L1-Ig was used for the binding studies with a Jurkat cell line over-expressing human PD-1. Briefly, 2.5×10^4 Jurkat-hPD-1 cells were seeded into 384 well plates in 20 μl of RPMI supplemented with 10% fetal calf serum. 12.5 nl of compound was added to cells followed by incubation at 37° C. for 2 hours. Then, 10 ul of Alexa fluor-647 labeled PD-L1-Ig (177 nM final), diluted in RPMI supplemented with 10% fetal calf serum was added to the cells and incubated for 1 hour. Cells were then fixed with 4% paraformaldehyde containing 10 μg/ml Hoechst 33342 and then washed 3× in 100 ul PBS and 100 ul of PBS was added in the final step. Data was collected using the Operetta High Content Imager and the data was analyzed using the columbus software.
With `Cc1cccc(C[C@@H]2NC(=O)[C@H](CC(=O)O)NC(=O)[C@H](Cc3ccc(OCC(=O)O)cc3)NC(=O)[C@H](CC3CCCCC3)NC(=O)CSC[C@@H](C(=O)N[C@@H](CCN)C(N)=O)NC(=O)[C@H](CCCN)NC(=O)[C@H](C(C)C)NC(=O)[C@H](CC3CCCCC3)NC(=O)[C@H](CCN)NC(=O)[C@@H](CC(C)C)NC(=O)[C@H](C)N(C)C(=O)[C@H](CCC(N)=O)NC(=O)[C@H](Cc3ccc(-c4ccccc4)cc3)NC(=O)[C@H](CCc3ccccc3)NC2=O)c1` [Example 5218] ({CH2CO}-[Cha]Y(Carboxymethyl)D[Phe(3-Me)][hPhe][Bip]Q[NMeA][dL][Dab][Cha]V[Orn]C[Dab]-NH2; thioether N-14), the IC50 amounted to 0.02 µM. The same measure, in the same setting: with `Cc1cccc(C[C@@H]2NC(=O)[C@H](CC(=O)O)NC(=O)[C@H](Cc3ccc(C(=O)O)cc3)NC(=O)[C@H](C)NC(=O)CSC[C@@H](C(=O)N[C@@H](CCN)C(N)=O)NC(=O)[C@H](CCC(=O)O)NC(=O)[C@H](C(C)C)NC(=O)[C@H](CC3CCCCC3)NC(=O)[C@H](CCN)NC(=O)[C@@H](CC(C)C)NC(=O)[C@H](C)N(C)C(=O)[C@H](Cc3ccc(C(=O)O)cc3)NC(=O)[C@H](Cc3ccc(-c4ccccc4)cc3)NC(=O)[C@H](Cc3ccc(C(=O)O)cc3)NC2=O)c1` [Example 5136] ({CH2CO}-A[Phe(4-COOH)]D[Phe(3-Me)][Phe(4-COOH)][Bip][Phe(4-COOH)][NMeA][dL][Dab][Cha]VEC[Dab]-NH2; thioether N-14) the figure was 0.02 µM. For the compound `CC(=O)Nc1ccc(-c2ccc(C[C@@H]3NC(=O)[C@H](Cc4cccc(C(F)(F)F)c4)NC(=O)[C@H](CC(=O)O)NC(=O)[C@H](Cc4ccc(C(=O)O)cc4)NC(=O)[C@H](CCN)NC(=O)CSC[C@@H](C(=O)N[C@@H](CCN)C(N)=O)NC(=O)[C@H](CC(N)=O)NC(=O)[C@H](C(C)C)NC(=O)[C@H](CC4CCCCC4)NC(=O)[C@H](CCN)NC(=O)[C@@H](CC(C)C)NC(=O)[C@H](C)N(C)C(=O)[C@H](Cc4ccc(C(N)=O)cc4)NC(=O)[C@H](Cc4ccc(-c5ccccc5)cc4)NC3=O)cc2)cc1` [Example 5098] ({CH2CO}-[Dab][Phe(4-COOH)]D[Phe(3-CF3)][Bip(4'-NHAc)][Bip][Phe(4-CONH2)][NMeA][dL][Dab][Cha]VNC[Dab]-NH2; thioether N-14), the IC50 came to 0.01 µM.

Staying with this assay, now noted: Jurkat-PD-1 cells, Alexa fluor-647 labeled PD-L1-Ig 177 nM; nM; read-out: CBA Method 3.
Take `CC(C)C[C@H]1NC(=O)[C@H](C)N(C)C(=O)[C@H](Cc2ccc(C(=O)O)cc2)NC(=O)[C@H](Cc2ccc(-c3ccccc3)cc2)NC(=O)[C@H](CCc2ccccc2)NC(=O)[C@H](Cc2cccc(C(F)(F)F)c2)NC(=O)[C@H](CC(=O)O)NC(=O)[C@H](Cc2ccc(C(=O)O)cc2)NC(=O)[C@H](CCCCNC(=N)N)NC(=O)CSC[C@@H](C(=O)N[C@@H](CCN)C(N)=O)NC(=O)[C@H](CO)NC(=O)[C@H](C(C)(C)O)NC(=O)[C@H](CC2CCCCC2)NC(=O)[C@H](CCN)NC1=O` [Example 5252] ({CH2CO}-[hArg][Phe(4-COOH)]D[Phe(3-CF3)][hPhe][Bip][Phe(4-COOH)][NMeA][dL][Dab][Cha][Val(3-OH)]SC[Dab]-NH2; thioether N-14): the IC50 was 0.0012 µM.

`Cc1cccc(C[C@@H]2NC(=O)[C@H](CC(=O)O)NC(=O)[C@H](Cc3ccc(OCC(=O)O)cc3)NC(=O)[C@H](CCCN)NC(=O)CSC[C@@H](C(=O)N[C@@H](CCN)C(N)=O)NC(=O)[C@H](CCCN)NC(=O)[C@H](C(C)C)NC(=O)[C@H](CC3CCCCC3)NC(=O)[C@H](CCN)NC(=O)[C@@H](CC(C)C)NC(=O)[C@H](C)N(C)C(=O)[C@H](CCC(N)=O)NC(=O)[C@H](Cc3ccc(-c4ccccc4)cc3)NC(=O)[C@H](Cc3ccc(C(=O)O)cc3)NC2=O)c1` [Example 5180] ({CH2CO}-[Orn]Y(Carboxymethyl)D[Phe(3-Me)][Phe(4-COOH)][Bip]Q[NMeA][dL][Dab][Cha]V[Orn]C[Dab]-NH2; thioether N-14): the IC50 stood at 0.0068 µM. Same read-out and setting: under `Cc1cccc(C[C@@H]2NC(=O)[C@H](CC(=O)O)NC(=O)[C@H](Cc3ccc(OCC(=O)O)cc3)NC(=O)[C@H](CC(C(=O)O)C(=O)O)NC(=O)CSC[C@@H](C(=O)N[C@@H](CCN)C(N)=O)NC(=O)[C@H](CCCN)NC(=O)[C@H](C(C)C)NC(=O)[C@H](CC3CCCCC3)NC(=O)[C@H](CCN)NC(=O)[C@@H](CC(C)C)NC(=O)[C@H](C)N(C)C(=O)[C@H](CCC(N)=O)NC(=O)[C@H](Cc3ccc(-c4ccccc4)cc3)NC(=O)[C@H](Cc3ccc(C(=O)O)cc3)NC2=O)c1` [Example 5169] ({CH2CO}-[Gla]Y(Carboxymethyl)D[Phe(3-Me)][Phe(4-COOH)][Bip]Q[NMeA][dL][Dab][Cha]V[Orn]C[Dab]-NH2; thioether N-14) stands 0.0089 µM; under `Cc1cccc(C[C@@H]2NC(=O)[C@H](CC(=O)O)NC(=O)[C@H](Cc3ccc(OCC(=O)O)cc3)NC(=O)[C@H](CCCCN)NC(=O)CSC[C@@H](C(=O)N[C@@H](CCN)C(N)=O)NC(=O)[C@H](CCCN)NC(=O)[C@H](C(C)C)NC(=O)[C@H](CC3CCCCC3)NC(=O)[C@H](CCN)NC(=O)[C@@H](CC(C)C)NC(=O)[C@H](C)N(C)C(=O)[C@H](CCC(N)=O)NC(=O)[C@H](Cc3ccc(-c4ccccc4)cc3)NC(=O)[C@H](Cc3ccc(C(=O)O)cc3)NC2=O)c1` [Example 5181] ({CH2CO}-KY(Carboxymethyl)D[Phe(3-Me)][Phe(4-COOH)][Bip]Q[NMeA][dL][Dab][Cha]V[Orn]C[Dab]-NH2; thioether N-14), 0.0038 µM; under `Cc1cccc(C[C@@H]2NC(=O)[C@H](CC(=O)O)NC(=O)[C@H](Cc3ccc(OCC(=O)O)cc3)NC(=O)[C@H](Cc3cccc(Cl)c3)NC(=O)CSC[C@@H](C(=O)N[C@@H](CCN)C(N)=O)NC(=O)[C@H](CCCN)NC(=O)[C@H](C(C)C)NC(=O)[C@H](CC3CCCCC3)NC(=O)[C@H](CCN)NC(=O)[C@@H](CC(C)C)NC(=O)[C@H](C)N(C)C(=O)[C@H](CCC(N)=O)NC(=O)[C@H](Cc3ccc(-c4ccccc4)cc3)NC(=O)[C@H](Cc3ccc(C(=O)O)cc3)NC2=O)c1` [Example 5286] ({CH2CO}-[Phe(3-Cl)]Y(Carboxymethyl)D[Phe(3-Me)][Phe(4-COOH)][Bip]Q[NMeA][dL][Dab][Cha]V[Orn]C[Dab]-NH2; thioether N-14), 0.0018 µM.

Take `CC(=O)Nc1ccc(-c2ccc(C[C@@H]3NC(=O)[C@H](Cc4cccc(C(F)(F)F)c4)NC(=O)[C@H](CC(=O)O)NC(=O)[C@H](Cc4ccc(C(=O)O)cc4)NC(=O)[C@H]([C@@H](C)N)NC(=O)CSC[C@@H](C(=O)N[C@@H](CCN)C(N)=O)NC(=O)[C@H](CCC(=O)O)NC(=O)[C@H](C(C)C)NC(=O)[C@H](CC4CCCCC4)NC(=O)[C@H](CCN)NC(=O)[C@@H](CC(C)C)NC(=O)[C@H](C)N(C)C(=O)[C@H](Cc4ccc(C(=O)O)cc4)NC(=O)[C@H](Cc4ccc(-c5ccccc5)cc4)NC3=O)cc2)cc1` [Example 5154] ({CH2CO}-[Abu(3R-NH2)][Phe(4-COOH)]D[Phe(3-CF3)][Bip(4'-NHAc)][Bip][Phe(4-COOH)][NMeA][dL][Dab][Cha]VEC[Dab]-NH2; thioether N-14): the IC50 is 0.0063 µM.
